Measured values published in paper PMC12480751, “A quantitative high-throughput screening pipeline to identify small molecule inhibitors of Chikungunya nsP2 protease” (Scientific Reports, 2025).
“Also recorded” adds a separate entry of the source. Like-named read-outs stand apart in the source and are kept apart here.

Key:
nsP2pro = nsP2pro (Chikungunya virus, UniProt Q8JUX6); conditions: for nsP2pro Vmax: 150 nM nsP2pro (peptide 2) or 2 μM nsP2pro (peptide 3); for Km: read-out: nsP2pro Km; for Km / nsP2pro kcat: substrate peptide
FL nsP2 = FL nsP2 (Chikungunya virus, UniProt Q8JUX6, C1333A); conditions: for full-length nsP2 Vmax: 150 nM nsP2 (peptide 2) or 2 μM nsP2 (peptide 3); for Km: read-out: FL nsP2 Km; for Km / FL nsP2 kcat: substrate peptide
nsP2 protease = biological target: T1, nsP2 protease (Chikungunya virus, UniProt Q8JUX6); test: cell-based; type: cell-based; conditions: for Emax: HEK293, read-out: Cell-based % Efficacy
T1 construct: expressed in transfected cells; host or cells: HEK293T (the results text says HEK293), transient co-transfection in pcDNA3.1(+)
T1 sequence (Q8JUX6 755-1333 limits assumed): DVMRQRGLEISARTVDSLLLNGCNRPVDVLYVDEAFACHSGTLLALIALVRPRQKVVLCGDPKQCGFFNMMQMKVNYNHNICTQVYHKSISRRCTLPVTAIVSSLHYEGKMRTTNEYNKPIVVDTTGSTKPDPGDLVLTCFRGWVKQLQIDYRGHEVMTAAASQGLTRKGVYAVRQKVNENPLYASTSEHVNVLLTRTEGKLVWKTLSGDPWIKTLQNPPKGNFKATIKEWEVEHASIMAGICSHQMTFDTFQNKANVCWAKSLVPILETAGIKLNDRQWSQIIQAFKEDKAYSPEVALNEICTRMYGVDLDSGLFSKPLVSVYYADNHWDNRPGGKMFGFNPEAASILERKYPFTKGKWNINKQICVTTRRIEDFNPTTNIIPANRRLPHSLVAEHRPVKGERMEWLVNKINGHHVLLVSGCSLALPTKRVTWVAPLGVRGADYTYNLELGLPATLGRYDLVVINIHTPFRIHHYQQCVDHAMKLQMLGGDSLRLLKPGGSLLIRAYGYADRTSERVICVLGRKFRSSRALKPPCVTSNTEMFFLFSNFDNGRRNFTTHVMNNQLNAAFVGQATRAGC

CHIKV nsP2pro = CHIKV nsP2pro (Chikungunya virus, UniProt Q8JUX6); test: FRET-based nsP2pro proteolytic assay with peptide 2 (nsp3/4 site), 1,536-well qHTS; type: biochemical; conditions: for selectivity for nsP2pro versus Papain, hFurin and HCV NS3-4A: based on biochemical counterscreens; for Emax: read-out: Enzymatic % Efficacy; for inhibitory activity against CHIKV nsP2: biochemical assays
[1] = test system: CHIKV 181/25 vaccine strain; test: CHIKV181/25 infection assay in SNB-19 cells, high-content immunofluorescence
[2] = CellTiter-Glo cell viability assay of SNB19 cells; type: cell-based, human; conditions: human, SNB19 cells
Protocol: Cells were harvested in growth media and dispensed (5 µL /1,000 cells/well) onto 1536-well white plates (Aurora #EWB041000A) using a Multidrop Combi. Control and test compounds were added (25 nL) using an Echo 650 liquid handler. Plates were incubated for 48 h at 37 °C and 5% CO2 and then equilibrated to room temperature prior to addition of 4 µL /well of CellTiter-Glo (Promega) using a Multidrop Combi. Plates were subsequently incubated for 15 min at room temperature and centrifuged for 1 min at 1000 rpm. Luminescence was read on a ViewLux imager equipped with clear filters.

human Furin = human Furin (Homo sapiens, UniProt P09958); test: human Furin FRET selectivity counterscreen; type: biochemical
Chain of human Furin (P09958 108-794): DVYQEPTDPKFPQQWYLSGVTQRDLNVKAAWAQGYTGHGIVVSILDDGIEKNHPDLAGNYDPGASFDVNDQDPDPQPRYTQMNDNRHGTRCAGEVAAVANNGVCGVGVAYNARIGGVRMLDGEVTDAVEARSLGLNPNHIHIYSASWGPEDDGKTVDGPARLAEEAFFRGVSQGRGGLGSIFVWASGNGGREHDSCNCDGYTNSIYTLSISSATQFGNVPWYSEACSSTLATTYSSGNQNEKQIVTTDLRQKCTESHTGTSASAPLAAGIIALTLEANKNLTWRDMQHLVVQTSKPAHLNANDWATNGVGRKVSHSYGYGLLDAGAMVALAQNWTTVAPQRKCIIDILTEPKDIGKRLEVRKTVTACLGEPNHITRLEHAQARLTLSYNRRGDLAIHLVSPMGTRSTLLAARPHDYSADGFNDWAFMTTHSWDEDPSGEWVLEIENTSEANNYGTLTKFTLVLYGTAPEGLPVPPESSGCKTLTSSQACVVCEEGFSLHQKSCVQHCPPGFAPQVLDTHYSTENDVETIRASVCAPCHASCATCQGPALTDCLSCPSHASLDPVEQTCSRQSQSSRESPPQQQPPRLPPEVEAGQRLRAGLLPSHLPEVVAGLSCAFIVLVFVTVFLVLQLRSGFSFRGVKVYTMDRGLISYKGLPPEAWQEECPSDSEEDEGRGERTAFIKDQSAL

Papain = Papain (Carica papaya, UniProt P00784)
Chain of Papain (P00784 134-345): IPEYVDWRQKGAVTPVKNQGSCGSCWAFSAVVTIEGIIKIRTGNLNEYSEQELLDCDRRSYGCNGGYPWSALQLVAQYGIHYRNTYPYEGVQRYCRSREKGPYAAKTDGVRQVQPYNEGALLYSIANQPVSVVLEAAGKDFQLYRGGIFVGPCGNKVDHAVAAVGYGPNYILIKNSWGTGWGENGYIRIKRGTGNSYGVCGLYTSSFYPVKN

[3] = nsP2pro biochemical assay, 13 cell-active hits
[4] = nsP2pro biochemical assay, 13 cell-active hits, read-out: Enzymatic IC50

5-TAMRA-DELRLDRAGGYIFSS-K-QSY7 [Peptide 2]
nsP2pro Vmax (nsP2pro): 0.26 µM/min
Km (nsP2pro): 6.3 µM
nsP2pro kcat (nsP2pro): 214.2 ± 13.1 x 10^-4 sec^-1
full-length nsP2 Vmax (FL nsP2): 0.2 µM/min
Km (FL nsP2): 1.1 µM
FL nsP2 kcat (FL nsP2): 167.2 ± 10.4 s⁻¹

Nc1nc2c(s1)CCN(Cc1ccc(Cl)cc1)CC2 [B-HT 958]
AC50 (nsP2 protease): 0.23 µM
Emax (nsP2 protease): 114%
IC50 (CHIKV nsP2pro): 7.9 µM
selectivity for nsP2pro versus Papain, hFurin and HCV NS3-4A (CHIKV nsP2pro): specific to nsP2pro
Emax (CHIKV nsP2pro): -62.1%

O=C(O[C@@H]1Cc2c(O)cc(O)cc2O[C@@H]1c1cc(O)c(O)c(O)c1)c1cc(O)c(O)c(O)c1 [EGCG, Epigallocatechin gallate]
effect on Nluc reporter signal in cellular nsp2 proteolytic assay (nsP2 protease): did not have an effect
inhibitory activity against CHIKV nsP2 (CHIKV nsP2pro): inhibited nsp2pro activity in vitro
effect on CHIKV infection ([1]; SNB-19 cells): strongly prevented CHIKV infection

Nc1ccn([C@@H]2O[C@H](CO)[C@@H](O)C2(F)F)c(=O)n1 [Gemcitabine]
concentrations showing consistent CHIKV inhibition ([1]; SNB-19 cells, infection inhibition control): under 1 µM

C[C@H](N)[C@H](O)c1ccc(O)c(O)c1 [Levonordefrin]
AC50 (nsP2 protease): 0.4 µM
Emax (nsP2 protease): 71.5%
IC50 (CHIKV nsP2pro): 7.7 µM
selectivity for nsP2pro versus Papain, hFurin and HCV NS3-4A (CHIKV nsP2pro): not selective
Emax (CHIKV nsP2pro): -74.9%
activity against HCV NS3-4A (HCV NS3-4A): also inhibited

CCOc1ccc(NC(=O)c2c(NC(=O)Cc3ccccc3)sc3c2CCCCC3)cc1 [NCGC00098557]
Cell-based % Efficacy (nsP2 protease): 101.3%
AC50 (nsP2 protease; read-out: Cell-based AC50): 12.9 µM
Enzymatic % Efficacy (CHIKV nsP2pro; [3]): -80.1%
IC50 (CHIKV nsP2pro; [4]): 7.9 µM

CCCS(=O)(=O)c1ncc(Cl)c(C(=O)N(Cc2ccccc2)Cc2ccco2)n1 [NCGC00115102]
selectivity for nsP2pro versus Papain, hFurin and HCV NS3-4A (CHIKV nsP2pro): specific to nsP2pro

O=c1oc2c3c(ccc2c2ccccc12)OCN(Cc1ccc(Cl)cc1)C3 [NCGC00116366]
AC50 (nsP2 protease): 36.5 µM
Emax (nsP2 protease): 309%
IC50 (CHIKV nsP2pro): 4.5 µM
Emax (CHIKV nsP2pro): -114%

O=c1oc2c3c(ccc2c2ccccc12)OCN(Cc1ccccc1Cl)C3 [NCGC00116374]
AC50 (nsP2 protease): 14.5 µM
Emax (nsP2 protease): 112%
IC50 (CHIKV nsP2pro): 4 µM
selectivity for nsP2pro versus Papain, hFurin and HCV NS3-4A (CHIKV nsP2pro): specific to nsP2pro
Emax (CHIKV nsP2pro): -103%

Cc1cccc(C(=O)Nc2ccc(N3CCN(c4ccc(F)cc4)CC3)c(C(=O)O)c2)c1 [NCGC00137618]
Cell-based % Efficacy (nsP2 protease): 55.5%
AC50 (nsP2 protease; read-out: Cell-based AC50): 32.6 µM
Enzymatic % Efficacy (CHIKV nsP2pro; [3]): -83%
IC50 (CHIKV nsP2pro; [4]): 10 µM

Cc1ccc(OCCn2c(CCNC(=O)c3ccccc3N)nc3ccccc32)cc1 [NCGC00241881]
Cell-based % Efficacy (nsP2 protease): 179%
AC50 (nsP2 protease; read-out: Cell-based AC50): > 50 µM
selectivity for nsP2pro versus Papain, hFurin and HCV NS3-4A (CHIKV nsP2pro): not selective
Enzymatic % Efficacy (CHIKV nsP2pro; [3]): -106.1%
IC50 (CHIKV nsP2pro; [4]): 1.1 µM

Cc1cccc(-c2noc([C@@H]3Cc4nc[nH]c4CN3C(=O)NC3CCCCC3)n2)c1 [NCGC00400417]
Cell-based % Efficacy (nsP2 protease): 75.7%
AC50 (nsP2 protease; read-out: Cell-based AC50): 47.2 µM
selectivity for nsP2pro versus Papain, hFurin and HCV NS3-4A (CHIKV nsP2pro): not selective
Enzymatic % Efficacy (CHIKV nsP2pro; [3]): -107.3%
IC50 (CHIKV nsP2pro; [4]): 2.1 µM

COc1cccc(C(=O)CCN[C@@H](C)[C@H](O)c2ccccc2)c1 [Oxyfedrine]
AC50 (nsP2 protease): 2.6 µM
Emax (nsP2 protease): 60.3%
IC50 (CHIKV nsP2pro): 1.3 µM
selectivity for nsP2pro versus Papain, hFurin and HCV NS3-4A (CHIKV nsP2pro): selective hits; also recorded: specific to nsP2pro
Emax (CHIKV nsP2pro): -88.6%

C#CC(=O)N(c1ccc(OC)cc1OC)C(C(=O)NCC(=O)OCC)c1cccs1 (stereo not shown) [PACMA 31]
selectivity for nsP2pro versus Papain, hFurin and HCV NS3-4A (CHIKV nsP2pro): selective hits

C/C(=N\NC(=N)N)c1cc(NC(=O)CCCCCCCCC(=O)Nc2cc(/C(C)=N/NC(=N)N)cc(/C(C)=N/NC(=N)N)c2)cc(/C(C)=N/NC(=N)N)c1 [Semapimod]
AC50 (nsP2 protease): 2.2 µM
Emax (nsP2 protease): 137%
CC50 at 48 h [2]: 20.6 µM
activity against Furin (human Furin): weak activity
IC50 (CHIKV nsP2pro): 6.3 µM
selectivity for nsP2pro versus Papain, hFurin and HCV NS3-4A (CHIKV nsP2pro): not selective
Emax (CHIKV nsP2pro): -106%
IC50 ([1]; Chikungunya virus, SNB-19, 44 h, read-out: IC50, prevention of CHIKV infection): 1600 nM
potency on CHIKV infection relative to effect on cell viability ([1]; IC50 infection vs CC50 SNB19): > tenfold
activity against HCV NS3-4A (HCV NS3-4A): also inhibited

CCC[C@H](NC(=O)[C@@H]1[C@H]2CCC[C@H]2CN1C(=O)[C@@H](NC(=O)[C@@H](NC(=O)c1cnccn1)C1CCCCC1)C(C)(C)C)C(=O)C(=O)NC1CC1 [Telaprevir]
AC50 (nsP2 protease): 31.6 µM
Emax (nsP2 protease): 213%
CC50 at 48 h [2]: 11.6 µM
IC50 (CHIKV nsP2pro): 3.5 µM
selectivity for nsP2pro versus Papain, hFurin and HCV NS3-4A (CHIKV nsP2pro): not selective
Emax (CHIKV nsP2pro): -123%
activity against Papain (Papain): potently inhibiting
activity against HCV NS3-4A (HCV NS3-4A): potently inhibiting; also recorded: also inhibited

COC(=O)CC[C@H](NC(=O)[C@H](CC(=O)OC)NC(=O)OCc1ccccc1)C(=O)N[C@H](C(=O)N[C@@H](CC(=O)OC)C(=O)CF)C(C)C [Z-DEVD-FMK]
inhibitory activity against CHIKV nsP2 (CHIKV nsP2pro): did not identify

CC(NC(=O)[C@H](Cc1ccccc1)NC(=O)OCc1ccccc1)C(=O)CF (stereo partly shown) [Z-FA-FMK]
inhibitory activity against CHIKV nsP2 (CHIKV nsP2pro): minimal inhibitory activity
activity against Papain (Papain): potently inhibiting

CC(C)N(CCC(=O)c1ccc2ccccc2c1)Cc1ccccc1 [ZM39923]
selectivity for nsP2pro versus Papain, hFurin and HCV NS3-4A (CHIKV nsP2pro): selective hits

CCCCN(CCCC)C(=S)[S-].CCCCN(CCCC)C(=S)[S-].[Zn+2] [Zinc dibutyldithiocarbamate]
activity against Furin (human Furin): either weak or had no effect
inhibitory activity against CHIKV nsP2 (CHIKV nsP2pro): potent inhibitor
activity against Papain (Papain): potent inhibitor
effect on CHIKV infection ([1]; SNB-19 cells): difficult to distinguish from cell toxicity
activity against HCV NS3-4A (HCV NS3-4A): either weak or had no effect

TMR-DELRLDRAGC/APSYR-K-QSY7 [Peptide 3]
nsP2pro Vmax (nsP2pro): 1.03 µM/min
Km (nsP2pro): 81.9 µM
nsP2pro kcat (nsP2pro): 85.5 ± 4.1 x 10^-4 sec^-1
full-length nsP2 Vmax (FL nsP2): 0.38 µM/min
Km (FL nsP2): 37.5 µM
FL nsP2 kcat (FL nsP2): 32.1 ± 2.1 s⁻¹
